How the values were obtained:
Assay in all cases: Greenhouse experiment, post-emergence treatment
Conditions in all cases: post-emergence method, application rate 125 g/ha
[1] = test system: ELEIN; assay type: in vivo, Eleusine indica
Protocol: (§1) The seeds of the test plants were sown separately for each species. […] For this purpose, the test plants were either sown directly and grown in the same containers, or they were first grown separately as seedlings and transplanted into the test containers a few days prior to treatment. Depending on the species, the plants were kept at 10-25° C. or 20-35° C., respectively. The test period extended over 2 to 4 weeks. During this time, the plants were tended, and their response to the individual treatments was evaluated. Evaluation was carried out using a scale from 0 to 100. 100 means no emergence of the plants, or complete destruction of at least the aerial moieties, and 0 means no damage, or normal course of growth. A moderate herbicidal activity is given at values of at least 60, a good herbicidal activity is given at values of at least 70, and a very good herbicidal activity is given at values of at least 85. […] [table]

[2] = test system: PHBPU; assay type: in vivo, Pharbitis purpurea
Protocol: as §1

[3] = test system: SETFA; assay type: in vivo, Setaria faberi
Protocol: as §1

`CC(C)(F)c1nc(N)nc(Nc2c(F)cccc2Oc2cc(Cl)cc(OC(F)(F)F)c2)n1` [Example 64] was tested. Which “herbicidal activity against ELEIN” value [1] did it give?
Its value is “very good (a very good herbicidal activity is given at values of at least 85)”.

What about the “herbicidal activity against PHBPU” value [2] of the same compound?
Its value is “very good (a very good herbicidal activity is given at values of at least 85)”.

What about the “herbicidal activity against SETFA” value [3] of the same compound?
The value was “very good (a very good herbicidal activity is given at values of at least 85)”.
